Laboratory results taken from patent US20230364051A1, “FORMULATIONS AND METHODS FOR IMPROVING AVIAN HEALTH” (CORNELL UNIVERSITY, priority 2022, published 2023).
Marks after values point to notes of the source that are not given here.

How the values were obtained:
[1] = tested on: gut bacterial populations; conditions: mice fed a high fat diet; cited from earlier work
[2] = Pectoral muscle glycogen analysis after intraamniotic administration; assay type: in vivo, Gallus gallus; conditions: for Average Glycogen: day 17, pectoral muscle at hatch
Method: (§1) Cornish-cross fertile broiler eggs (Gallus gallus, n = 39) were obtained from a commercial hatchery (Moyer’s chicks, Quakertown, PA, USA). The eggs were incubated under optimal conditions at the Cornell University Animal Science Poultry Farm Incubator [18]. All animal protocols were approved by Cornell University Institutional Animal Care and Use committee (IACUC #2020-0077). At day 17 of embryonic incubation, eggs containing viable embryos were weighed and divided into 5 groups, with all treatment groups assigned eggs of similar weight frequency distribution. Each group was then injected with the specific solution (1 mL per egg) with a 21-gauge needle into the amniotic fluid. Treatments in powder form were separately diluted in DI H2O. Two treatment groups (1.25, 2.5 wt. %), two controls (H2O and non-injected), and a positive control (5 wt. % inulin) were administered. After injection, the injection holes were sealed with cellophane tape and the eggs were placed in hatching baskets such that each treatment was equally represented at each incubator location. Immediately upon hatch (day 21), blood was taken for hemoglobin determination and all chicks were then euthanized by CO2 exposure. The small intestine, pectoral muscle, cecum, and liver were collected, immediately frozen in liquid nitrogen, and then stored in a -80° C. freezer until analysis.
Glycogen analysis was obtained from pectoralis muscle as previously described. Briefly, the frozen pectoral muscle samples were homogenized in 8 wt. % perchloric acid. Samples were then centrifuged at 12,000 × g for 15 minutes. The supernatant was removed, and 1.0 mL of petroleum ether was added to each tube. After mixing, the petroleum ether fraction was removed and samples from the bottom layer were transferred to a 96-well plate containing 300 µL of color reagent. All samples were read at a wavelength of 450 nm in an ELISA reader and the amount of glycogen was calculated according to a standard curve. The amount of glycogen present in pectoral sample was determined by multiplying the weight of the tissue by the amount of glycogen per 1 g of wet tissue.

[3] = Body weight and cecum weight at hatch after intraamniotic administration; assay type: in vivo, Gallus gallus; conditions: for Average Body Weight / Average Cecum Weight: day 17, at hatch
Method: as §1

DcytB = experiment: Duodenal gene expression by RT-qPCR: DcytB; assay type: in vivo, Gallus gallus; conditions: genistein treatment groups vs no injection, H2O and inulin, p < 0.05; duodenum
Method: (§2) Cornish-cross fertile broiler eggs (Gallus gallus, n = 39) were obtained from a commercial hatchery (Moyer’s chicks, Quakertown, PA, USA). The eggs were incubated under optimal conditions at the Cornell University Animal Science Poultry Farm Incubator [18]. All animal protocols were approved by Cornell University Institutional Animal Care and Use committee (IACUC #2020-0077). At day 17 of embryonic incubation, eggs containing viable embryos were weighed and divided into 5 groups, with all treatment groups assigned eggs of similar weight frequency distribution. Each group was then injected with the specific solution (1 mL per egg) with a 21-gauge needle into the amniotic fluid. Treatments in powder form were separately diluted in DI H2O. […]
(§3) Total RNA was extracted from 30 mg of the proximal duodenal (n=6) or liver tissues (n=6) using Qiagen RNeasy Mini Kit (Qiagen Inc., Valencia, CA) according to the manufacturer’s protocol. […] RNA was quantified by absorbance at 260-280 nm using a NanoDrop 2000 (ThermoFisher Scientific, Waltham, MA). […]
(§4) As previously described. cDNA was generated using a 20 uL reverse transcriptase (RT) reaction in a BioRad C1000 touch thermocycler using the Improm-II Reverse Transcriptase Kit (Catalog #A1250; Promega, Madison, WI, USA). […] Genomic DNA contamination was assessed using a RT-PCR assay for the reference of genes samples. […]

DMT1 = experiment: Duodenal gene expression by RT-qPCR: DMT1; assay type: in vivo, Gallus gallus; conditions: 1.25 wt. % genistein vs no injection and H2O controls, p < 0.05; duodenum
Method: as §2, §3, §4

[4] = maternal intake perinatally and throughout pregnancy, mice; cited from earlier work
[5] = 1.25 wt. % genistein intraamniotic
[6] = 2.5 wt. % genistein intraamniotic

O=c1c(-c2ccc(O)cc2)coc2cc(O)cc(O)c12 [Genistein, genistein]
Gut bacterial populations associated with decreasing levels of lipopolysaccharide [1]: increased
Average Glycogen [2, 5]: 0.008 ± 0.003 ^ab mg/g
Average Glycogen [2, 6]: 0.015 ± 0.004 ^a mg/g
Average glycogen vs control ([2]; genistein treated groups vs no injection, p > 0.05): no significant difference
Average Body Weight [3, 5]: 45.83 ± 0.99 ^ab g
Average Cecum Weight [3, 5]: 0.50 ± 0.04 ^ab g
Average Body Weight [3, 6]: 47.69 ± 1.30 ^a g
Average Cecum Weight [3, 6]: 0.44 ± 0.03 ^b g
Body weight vs control ([3]; 2.5 wt. % genistein vs non-injected group, p < 0.05): significantly higher
Cecum weight of no injection and H2O groups compared to treated group ([3]; 2.5 wt. % genistein, p < 0.05): significantly greater values
Gene expression of DcytB (DcytB): significantly downregulated
Gene expression of DMT1 (DMT1): downregulated
Harmful effects of a high-fat fed diet in dams and offspring [4]: mitigated
